This note sets out measurements from US9388389B2, “JFH-1 based HCV cell culture systems for NS5A of genotypes 1-7” (Hvidovre Hospital, priority 2009, dated 2016).

What all share (test): IFN-alpha 2b treatment of infected cultures
What all share (format): cell-based, hepatitis C virus

In one assay the test system is S52(3a) NS5A recombinant. The following applies: genotype 3a, isolate S52 NS5A recombinant. As to the method:
(§1) Huh7.5 cells were infected with J6/JFH1 with NS5A of the indicated isolate (or ISDR type). J6/JFH1 was included with two infectious doses to control for impact of dose variability. The infectious dose of other recombinants was in the range between. […] On day three cells were fixed and immunostained for NS3 expression. The number of single infected cells was determined by automated counting of individual wells. Values are shown as percentage infected cells compared to the average for non-treated controls of the given recombinant. Data were fitted to a sigmoidal dose-response curve with the equation Y=1/(1+10^((Log(EC50)−Log(IU/mL))*HillSlope)), where Y is the response in %.
(§2) 5×10^3 naïve Huh7.5 cells were plated per well in a poly-D-lysine coated 96-well plate (Nunc, Roskilde, D K) one day before infection with different recombinant viruses. Infectious doses were chosen to aim at 400-1000 single infected cells in non-treated wells at the end of the experiment. J6/JFH1 was included with two infectious doses (high and low) to control for impact of dose variability. The infectious dose of other recombinants was in the range between. […] On day three cells were fixed and immunostained for NS3 expression as described above. In parallel, cell viability was monitored with CellTiter™ 96 AQueous One Solution Cell Proliferation Assay (Promega, Madison, Wis. USA). The number of single infected cells was determined by automated counting of individual wells as described above.
(§3) On day three cells were fixed and immunostained for NS3 expression. The number of single infected cells was determined by automated counting (FIG. 15).

Assay [1] has as its system SA13(5a) NS5A recombinant. The following applies: genotype 5a, isolate SA13 NS5A recombinant. As to the method:
as §1, §2, §3

Another assay has as its system J6(2a) NS5A recombinant. The following applies: genotype 2a, isolate J6 NS5A recombinant. As to the method:
as §1, §2, §3

The test system of assay [2] is HK6a(6a) NS5A recombinant. The conditions noted are these: genotype 6a, isolate HK6a NS5A recombinant. As to the method:
as §1, §2, §3

Another assay concerns J4(1b) NS5A recombinant. The following applies: genotype 1b, isolate J4 NS5A recombinant. The protocol:
as §1, §2, §3

The next assay concerns TN(1a) NS5A recombinant. The following applies: genotype 1a, isolate TN NS5A recombinant. As to the method: as §1, §2, §3
Assay [3] concerns H77C(1a) NS5A recombinant. The conditions noted are these: genotype 1a, isolate H77C NS5A recombinant. As to the method: as §1, §2, §3
Another assay concerns JFH1(2a) NS5A (J6/JFH1). The following applies: genotype 2a, isolate JFH1 NS5A (J6/JFH1). As to the method: as §1, §2, §3
For assay [4], the system named is QC69(7a) NS5A recombinant. The following applies: genotype 7a, isolate QC69 NS5A recombinant. As to the method:
as §1, §2, §3

In assay [5] the test system is J4(1b) NS5A ISDR mutant recombinant. The following applies: genotype 1b, isolate J4 NS5A. As to the method: as §1, §2, §3
Assay [6] concerns ED43(4a) NS5A recombinant. The conditions noted are these: genotype 4a, isolate ED43 NS5A recombinant. The protocol:
as §1, §2, §3

On to IFN-α, for which the “IFN-α, EC50 (IU/mL), original” value in the assay on S52(3a) NS5A recombinant came to 0.27 IU/mL; in assay [1] it was 0.32 IU/mL; in the assay on J6(2a) NS5A recombinant, 0.12 IU/mL; in assay [2] it was 0.21 IU/mL; with J4(1b) NS5A recombinant, 0.12 IU/mL; in the assay with TN(1a) NS5A recombinant, 0.28 IU/mL. Further, the “IFN-α, EC50 (IU/mL), original” value stood at 0.25 IU/mL in assay [3], 0.25 IU/mL with JFH1(2a) NS5A (J6/JFH1), 0.18 IU/mL in assay [4] and 0.15 IU/mL in [6]. The “IFN-α, EC50 (IU/mL), 'Sensitive-type' ISDR mutant” value in [5] was found to be 0.12 IU/mL.
